Molecules are shown by their SMILES.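 A five-concentration, 48-hour dose response in 96-well plates underlies each endpoint, interpolated linearly between surrounding concentrations. GI50: concentration for 50% inhibition of growth. Definition used: TGI = concentration required for complete inhibition of growth.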

Data on 8 compounds can be found in PubChem BioAssay (NCI).

Among the test systems are DU-145 prostate; OVCAR-8 ovarian; NCI-H522 lung; HCC-2998 colon; U251 CNS; MOLT-4 leukemia; OVCAR-3 ovarian; CAKI-1 renal; UO-31 renal; OVCAR-4 ovarian.
What all share (assay): NCI tumour cell line growth inhibition, 48 h

Consider `CCCOC(=O)c1c(C)n(C)c2scc[n+]12`, for which the GI50 in the assay with DU-145 prostate was 86.1 µM; in the assay with OVCAR-8 ovarian, 49.2 µM; with NCI-H522 lung it was 31.4 µM; in the assay on HCC-2998 colon, 55.9 µM; with U251 CNS, 34 µM; in the assay with MOLT-4 leukemia, 53.9 µM. The GI50 in the assay on OVCAR-3 ovarian is 30.6 µM; with CAKI-1 renal, 39.9 µM; in the assay on UO-31 renal it was > 100 µM; in the assay with OVCAR-4 ovarian it was 37.1 µM. The TGI in the assay with DU-145 prostate, in the assay on OVCAR-8 ovarian, in the assay with NCI-H522 lung, with HCC-2998 colon, in the assay on U251 CNS and with MOLT-4 leukemia was > 100 µM each time. The TGI in the assay on OVCAR-3 ovarian, in the assay on CAKI-1 renal, with UO-31 renal and in the assay on OVCAR-4 ovarian was > 100 µM in each case.

With `O=C(NC(=O)c1c(Cl)nc2sccn12)Nc1ccc(Cl)cc1`, the TGI in the assay on DU-145 prostate is > 100 µM; with OVCAR-8 ovarian, > 100 µM; with NCI-H522 lung, > 100 µM; with HCC-2998 colon, > 93.6 µM; in the assay with U251 CNS it was 55.9 µM; with MOLT-4 leukemia, > 100 µM. The TGI was > 100 µM in the assay with OVCAR-3 ovarian, > 100 µM in the assay with CAKI-1 renal, > 84.4 µM in the assay on UO-31 renal and > 100 µM in the assay on OVCAR-4 ovarian.

Turning to `Cn1cc(C2=C(c3c[nH]c4ccccc34)C(=O)NC2=O)c2ccccc21`, the GI50 with DU-145 prostate was 2.37 µM; with OVCAR-8 ovarian, 1.51 µM; in the assay with NCI-H522 lung, 2.11 µM; with HCC-2998 colon it was 6.66 µM; in the assay with U251 CNS it was 1.36 µM; in the assay with MOLT-4 leukemia it was 0.458 µM. Also, the GI50 in the assay on OVCAR-3 ovarian was 0.94 µM; in the assay with CAKI-1 renal, 0.523 µM; with UO-31 renal, 0.334 µM; in the assay with OVCAR-4 ovarian, > 5.06 µM. Further, the TGI in the assay on DU-145 prostate was > 25 µM; with OVCAR-8 ovarian, > 25 µM; in the assay on NCI-H522 lung, > 25 µM; in the assay on HCC-2998 colon it was > 25 µM; in the assay with U251 CNS, > 25 µM; with OVCAR-3 ovarian it was > 11.9 µM. Moreover, the TGI with CAKI-1 renal, in the assay with UO-31 renal and in the assay on OVCAR-4 ovarian was > 25 µM throughout.

For the compound `O=C(/C=C/C=C/c1ccccc1)c1ccco1`, the GI50 with DU-145 prostate was 12.5 µM; with OVCAR-8 ovarian, 27.1 µM; with NCI-H522 lung, 13.2 µM; with HCC-2998 colon, 15 µM; in the assay on U251 CNS it was 12.4 µM; in the assay with MOLT-4 leukemia it was 1.92 µM. Also, the GI50 with OVCAR-3 ovarian was 14.2 µM; in the assay with CAKI-1 renal, 16 µM; in the assay on UO-31 renal it was 10.6 µM; with OVCAR-4 ovarian, 23.1 µM. Besides, the TGI was 25.4 µM in the assay with DU-145 prostate; > 100 µM with OVCAR-8 ovarian; 27 µM in the assay with NCI-H522 lung; 28.3 µM in the assay with HCC-2998 colon; 24.9 µM in the assay with U251 CNS; 21.5 µM in the assay with MOLT-4 leukemia. For the same compound, the TGI in the assay on OVCAR-3 ovarian was 27.6 µM; in the assay on CAKI-1 renal it was 32.8 µM; in the assay on UO-31 renal, 22.6 µM; with OVCAR-4 ovarian, > 100 µM.

Turning to `CCCc1cc(=O)n2c(C(=O)Nc3ccc(F)cc3)c(C(=O)Nc3ccc(F)cc3)sc2n1`, the GI50 is 124 µM in the assay with DU-145 prostate; 4.57 µM with OVCAR-8 ovarian; 73.3 µM in the assay on NCI-H522 lung; > 160 µM with HCC-2998 colon; 16.3 µM with U251 CNS; > 160 µM in the assay with MOLT-4 leukemia. For the same compound, the GI50 in the assay with OVCAR-3 ovarian is 22.9 µM; in the assay with CAKI-1 renal, 75.3 µM; with UO-31 renal it was 27.6 µM; with OVCAR-4 ovarian, 26.4 µM. The TGI in the assay on DU-145 prostate is > 160 µM; in the assay on OVCAR-8 ovarian it was 28 µM; in the assay on NCI-H522 lung, > 160 µM; in the assay on HCC-2998 colon, > 160 µM; in the assay with U251 CNS, 47.9 µM; in the assay with MOLT-4 leukemia, > 160 µM. Also, the TGI is 49.8 µM with OVCAR-3 ovarian, > 160 µM in the assay with CAKI-1 renal, 101 µM in the assay with UO-31 renal and 54.9 µM in the assay on OVCAR-4 ovarian.

Take `CCCCCCCCCCCCC(O)c1ccco1` (centres undefined): the GI50 with DU-145 prostate is 19.3 µM; in the assay on OVCAR-8 ovarian it was 25.6 µM; with NCI-H522 lung, 20 µM; in the assay with HCC-2998 colon it was 18.4 µM; in the assay with U251 CNS, 16.2 µM; in the assay on MOLT-4 leukemia it was 25.4 µM. Also, the GI50 with OVCAR-3 ovarian is 17.9 µM; with CAKI-1 renal it was 18 µM; in the assay with UO-31 renal it was 19 µM; in the assay on OVCAR-4 ovarian, 29.7 µM. Besides, the TGI in the assay on DU-145 prostate was 35.1 µM; in the assay on OVCAR-8 ovarian, 52.9 µM; in the assay with NCI-H522 lung, 41 µM; with HCC-2998 colon, 32.3 µM; in the assay on U251 CNS, 29.7 µM; with MOLT-4 leukemia, 52 µM. In addition, the TGI in the assay on OVCAR-3 ovarian was determined as 34.4 µM; with CAKI-1 renal, 33.4 µM; in the assay with UO-31 renal, 39.7 µM; in the assay on OVCAR-4 ovarian it was 78.3 µM.

Take `CC(=O)N1CCN(CCNC(=O)n2cc(-c3ccncc3)c(-c3cc(O)cc(Cl)c3)n2)CC1`: the GI50 with DU-145 prostate is 24.3 µM; in the assay on OVCAR-8 ovarian it was 12.2 µM; with NCI-H522 lung, 14.9 µM; with HCC-2998 colon, 17.2 µM; in the assay on U251 CNS, 10.9 µM; in the assay with MOLT-4 leukemia, 10.4 µM. Moreover, the GI50 in the assay on OVCAR-3 ovarian was 17.3 µM; with CAKI-1 renal, 13 µM; with UO-31 renal, 8.95 µM; with OVCAR-4 ovarian, 27.8 µM. Moreover, the TGI with DU-145 prostate was > 100 µM; in the assay with OVCAR-8 ovarian it was > 100 µM; in the assay with NCI-H522 lung it was 34.1 µM; in the assay with HCC-2998 colon, 32.2 µM; in the assay on U251 CNS, 26.1 µM; in the assay with MOLT-4 leukemia, 49.2 µM. The TGI is 46.5 µM with OVCAR-3 ovarian, 38.1 µM with CAKI-1 renal, 22.5 µM in the assay with UO-31 renal and > 100 µM in the assay on OVCAR-4 ovarian.

Consider `COc1cccc2cc(N(C)c3nc(C)nc4c3CCC4)ccc12`, for which the GI50 with DU-145 prostate, in the assay with OVCAR-8 ovarian, in the assay on NCI-H522 lung, with HCC-2998 colon, with U251 CNS and in the assay on MOLT-4 leukemia was < 0.01 µM each time. Moreover, the GI50 was < 0.01 µM in the assay on OVCAR-3 ovarian, < 0.01 µM with CAKI-1 renal, < 0.0104 µM in the assay with UO-31 renal and < 0.0104 µM in the assay with OVCAR-4 ovarian. Further, the TGI with DU-145 prostate was 12 µM; with OVCAR-8 ovarian, 19.2 µM; with NCI-H522 lung, < 0.01 µM; with HCC-2998 colon, 14 µM; in the assay with U251 CNS, 12.8 µM; with MOLT-4 leukemia, 16.1 µM. Moreover, the TGI in the assay with OVCAR-3 ovarian was < 0.01 µM; in the assay with CAKI-1 renal it was 18.9 µM; with UO-31 renal, 18.1 µM; in the assay with OVCAR-4 ovarian, 20 µM.
